Measurements reported in PMC7937321 (Genes and Environment, 2021).
Entries after “also recorded” stand apart in the source; their conditions may differ. Like-named read-outs stand apart in the source and are kept apart here.

What was measured:
[1] = tested on: TA1538, TA100, TA98, TA97, TA1535; settings: cited from earlier work; for Bacterial reverse mutation assay, With S9 / Bacterial reverse mutation assay, Without S9: ref [18]-[40], Table 2
[2] = tested on: L5178Y mouse lymphoma cells; parameters: key to MLA (TK gene locus), Without S9 / MLA (TK gene locus), With S9: Positive; Negative; settings: cited from earlier work
[3] = tested on: human lymphoblastoid TK6 cells, thymidine kinase gene
[4] = tested on: rodent; settings: cited from earlier work; for Carcinogenicity Studies: rodent, ref [20]-[41], Table 2; for carcinogenicity: report of the National Toxicology Program, ref [24]
[5] = tested on: rodent; settings: cited from earlier work
[6] = tested on: livers of rats; settings: ref [74]; cited from earlier work
[7] = tested on: human lymphoblastoid TK6 cells, thymidine kinase gene; assay: TK gene mutation assay (TK6 assay, OECD TG490); settings: for TK6 assay overall judgment: all treatments; for TK mutation assay, With S9 / TK mutation assay, Without S9: short-term 4 h; for TK mutation assay, With S9: with rat liver S9
[8] = tested on: LacI transgenic mice; settings: ref [77]; cited from earlier work
[9] = tested on: gpt transgenic rats; parameters: method as in PMID 20026473, doi:10.3123/jemsge.34.25; settings: ref [23], [78]; cited from earlier work
[10] = tested on: TK6 cells; settings: human
[11] = tested on: mouse organs; settings: ref [80]; cited from earlier work
[12] = tested on: rats; settings: cited from earlier work
[13] = tested on: rats; settings: ref [75]; cited from earlier work
[14] = tested on: mice; parameters: method as in PMID 22539226; settings: ref [6]; cited from earlier work
[15] = tested on: human lymphocytes; parameters: method as in PMID 22539226; settings: in vitro; ref [6]; cited from earlier work
[16] = in vitro; settings: human
[17] = tested on: TK6 cells; assay: Cytotoxicity in the TK6 assay (CE, RS, RSG, RTG)
[18] = tested on: human lymphoblastoid TK6 cells, thymidine kinase gene; parameters: method as in PMID 2184322; settings: 96 h of exposure, absence of S9; ref [67]; cited from earlier work
[19] = tested on: 3-D reconstituted human skin cells; parameters: method as in PMID 32152633; settings: ref [10], [11]; cited from earlier work
[20] = tested on: mammalian cells; parameters: method as in PMID 32152633; settings: ref [10], [11]; cited from earlier work
[21] = chromosomal Aberration test, micronucleus test, transgenic rodent gene mutation assay, ref [48], [58]–[63]
[22] = Short-term treatment with metabolic activation
[23] = Short-term treatment without metabolic activation

Oc1cccc2cccnc12 [8-Hydroxyquinoline]
The Highest Specific Activity and the Strain ([1]; TA97 with S9, ref [28]): 21,400 revertants/mg | The Highest Specific Activity and the Strain ([1]; TA100 with S9, ref Table 2): 16,000 revertants/mg | specific activity values obtained from Ames test ([1]; ref Table 2): exceeding 10,000 revertants per milligram | Bacterial reverse mutation assay, With S9 [1]: Pos | Bacterial reverse mutation assay, Without S9 [1]: Neg | MLA (TK gene locus), Without S9 ([2]; ref [27], [46]-[53], Table 3): Pos | TK mutation assay, With S9 [3]: Pos | TK mutation assay, Without S9 [3]: Neg | Trend test, test statistic ([3]; human): 4.896 / 1.645 / p < 0.05 | Carcinogenicity Studies [4]: Neg | in vivo genotoxicity tests [5, 21]: negative

Cc1c(N)cccc1N [2,6-Diaminotoluene]
DNA adducts in the livers of rats [6]: marginal amount of adducts | The Highest Specific Activity and the Strain ([1]; TA100 with S9, ref Table 2): 1703 revertants/mg in TA100 with S9 | Bacterial reverse mutation assay, With S9 [1]: Pos | Bacterial reverse mutation assay, Without S9 [1]: Neg | TK6 assay result (mutant frequency increase, judgment) ([7]; 4h treatment (+S9)): Statistically significant increases of MF; also recorded: mutagenic | TK6 assay result (mutant frequency increase, judgment) ([7]; 4h treatment (-S9)): negative | TK mutation assay, Long term ([7]; 24 h, without S9): Pos | TK6 assay result (mutant frequency increase, judgment) ([7]; 24h treatment (-S9)): Statistically significant increases of MF; also recorded: positive; also recorded: mutagenic | TK6 assay overall judgment [7]: positive | TK mutation assay, With S9 [7]: Pos | TK mutation assay, Without S9 ([7]; without S9): Neg | mutagenicity in MLA using L5178Y mouse lymphoma cells ([2]; 4 h, −S9, ref [68]): occurs | MLA (TK gene locus), Without S9 ([2]; ref [27], [46]-[53], Table 3): Pos | mutagenic assay with LacI transgenic mice [8]: negative | gpt mutagenic assay with transgenic rats [9]: negative | cytotoxicity [10]: More than 80% | comet assay of various mouse organs [11]: negative | UDS assay ([12]; high dose, ref [79]): positive | unscheduled DNA synthesis (UDS) assay in rats ([12]; ref [76]): negative | carcinogenicity [4]: non-carcinogenic | Carcinogenicity Studies [4]: Neg | hepatocellular proliferation in rats [13]: negative | in vivo genotoxicity tests [5, 21]: negative

Cc1ccc(N)cc1N [2,4-Diaminotoluene, reference compound]
DNA adducts in the livers of rats [6]: Significant DNA adducts were detected | carcinogenicity [4]: carcinogenic

CSc1ccc(OCc2ncc([N+](=O)[O-])n2C)cc1 [fexinidazole, reference compound]
Ames test ([1]; ref [6]): positive | bone marrow micronucleus test in mice [14]: negative | ex vivo unscheduled DNA synthesis in rats ([12]; ref [6]): negative | micronucleus test in human lymphocytes [15]: negative

COS(C)(=O)=O [MMS, methyl methanesulfonate]
CE0 (%) ([10]; 4 h, 3 μg/mL): 48.8% | CE0 (%), cell viability on Day 0 ([10]; 4 h, 3 μg/mL): 38.3% | CE3 (%) ([10]; 4 h, 3 μg/mL): 56.3% | CE3 (%), cell viability on Day 3 ([10]; 4 h, 3 μg/mL): 54.7% | Daily cell growth Day 1×2×3 ([10]; 4 h, 3 μg/mL): 8.36 | Adjusted CE0 ([10]; 4 h, 5 μg/mL): 30.4% | CE0 ([10]; 4 h, 5 μg/mL): 32.6% | Daily cell growth Day 1×2×3 ([10]; 4 h, 5 μg/mL): 7.40 | RS ([10]; 4 h, 5 μg/mL): 35.0 | RS0 ([10]; 4 h, 5 μg/mL): 35.0% | RSG ([10]; 4 h, 5 μg/mL): 0.357 | Adjusted CE0(%) ([10]; 24 h, 1 μg/mL): 133.2% | CE0 (%) ([10]; 24 h, 1 μg/mL): 63.1% | CE3 ([10]; 24 h, 1 μg/mL): 0.866 | CE3 (%) ([10]; 24 h, 1 μg/mL): 86.6% | Daily cell growth Day 1×2×3 ([10]; 24 h, 1 μg/mL): 15.58 | RS0 (%) ([10]; 24 h, 1 μg/mL): 59.4% | RSG ([10]; 24 h, 1 μg/mL): 0.886 | Adjusted CE0 ([10]; 24 h, 2 μg/mL): 8.3% | Adjusted CE0(%) ([10]; 24 h, 2 μg/mL): 42.0% | CE0 ([10]; 24 h, 2 μg/mL): 14.6% | CE0 (%) ([10]; 24 h, 2 μg/mL): 21.6% | CE3 (%) ([10]; 24 h, 2 μg/mL): 81.6% | RS ([10]; 24 h, 2 μg/mL): 12.2 | RS0 ([10]; 24 h, 2 μg/mL): 12.2% | RS0 (%) ([10]; 24 h, 2 μg/mL): 18.7% | Mut. freq. T-MF (MF) ([3]; human, 4 h, 3 μg/mL): 23.9 ×10-6 | MF ([3]; human, 4 h, 5 μg/mL): 71.7 | Mut. freq. N-MF ([3]; human, 4 h, 5 μg/mL): 29.3 ×10-6 | Mut. freq. S-MF ([3]; human, 4 h, 5 μg/mL): 42.3 ×10-6 | Mut. freq. T-MF ([3]; human, 4 h, 5 μg/mL): 71.7 ×10-6 | %SG ([3]; human, 24 h, 1 μg/mL): 59.3% | Mut. freq. (×10-6) N-MF ([3]; human, 24 h, 1 μg/mL): 14.0 ×10-6 | Mut. freq. (×10-6) S-MF ([3]; human, 24 h, 1 μg/mL): 20.5 ×10-6 | Mut. freq. (×10-6) T-MF ([3]; human, 24 h, 1 μg/mL): 34.5 ×10-6 | MF ([3]; human, 24 h, 2 μg/mL): 86.4 | Mut. freq. (×10-6) N-MF ([3]; human, 24 h, 2 μg/mL): 25.3 ×10-6 | Mut. freq. (×10-6) S-MF ([3]; human, 24 h, 2 μg/mL): 39.7 ×10-6 | Mut. freq. (×10-6) T-MF ([3]; human, 24 h, 2 μg/mL): 65.0 ×10-6 | Mut. freq. N-MF ([3]; human, 24 h, 2 μg/mL): 51.4 ×10-6 | Mut. freq. S-MF ([3]; human, 24 h, 2 μg/mL): 34.9 ×10-6 | Mut. freq. T-MF ([3]; human, 24 h, 2 μg/mL): 86.4 ×10-6 | viability at 4 h, 3 μg/mL ([16]; CE0 (%), cell viability on Day 0): 27.3% | viability at 4 h, 3 μg/mL ([16]; CE3 (%), cell viability on Day 3): 70.6%

Cl.ClCc1ccccn1 [2-(Chloromethyl) pyridine HCl]
The Highest Specific Activity and the Strain ([1]; TA100 with S9, ref Table 2): 98.6 revertants/mg in TA100 with S9 | Bacterial reverse mutation assay, With S9 [1]: Pos | Bacterial reverse mutation assay, Without S9 [1]: Pos | TK6 assay result (mutant frequency increase, judgment) ([7]; 4h treatment (+S9)): clear concentration-dependent increase of MF | TK6 assay result (mutant frequency increase, judgment) ([7]; 4h treatment (-S9)): clear concentration-dependent increase of MF | Dunnett type test, test statistic [7, 22]: 5.868 | Trend test, test statistic [7, 22]: 3.912 | Dunnett type test, test statistic [7, 23]: 5.268 | Trend test, test statistic [7, 23]: 3.417 | TK6 assay overall judgment [7]: positive | TK mutation assay, With S9 [7]: Pos | TK mutation assay, Without S9 ([7]; without S9): Pos | MLA (TK gene locus), With S9 ([2]; with S9, ref [27], [46]-[53], Table 3): Pos | MLA (TK gene locus), Without S9 ([2]; ref [27], [46]-[53], Table 3): Pos | Carcinogenicity Studies [4]: Neg | cytotoxicity (relative colony efficiency) ([17]; 60 μg/mL, absence of S9, short-term): About 80% | cytotoxicity (relative colony efficiency) ([17]; 100 μg/mL, presence of S9, short-term): About 80% | in vivo genotoxicity tests ([5]; in vivo): negative

Nc1ccc(-c2ccc(N)cc2)cc1 [benzidine]
Mutagenicity in human TK6 cells [18]: Mutagenicity was confirmed

C[N+](C)(C)c1ccc2ccc(O)c(N=Nc3ccc(N)c([N+](=O)[O-])c3)c2c1.[Cl-] [Basic Brown 17]
comet assay with 3-D reconstituted human skin cells [19]: negative | Ames test ([1]; ref [10], [11]): positive | mutation assays using mouse lymphoma ([2]; two loci of TK and HPRT, ref [10], [11]): negative | in vitro micronucleus test using mammalian cells [20]: negative
